Several values for one entry are separate records, joined by “and”; a condition that tells them apart may be missing. Equal entries are not always repeated.
Test: molar heat capacity at saturation pressure

c1ccc(-c2cccc3ccccc23)cc1 [1-phenylnaphthalene]
Settings | molar heat capacity
57.98 K, Crystal, Vacuum adiabatic calorimetry | 61.8 J/K/mol
60 K, Crystal, Vacuum adiabatic calorimetry | 63.39 J/K/mol
61.92 K, Crystal, Vacuum adiabatic calorimetry | 65.08 J/K/mol
63.69 K, Crystal, Vacuum adiabatic calorimetry | 66.18 J/K/mol
66.86 K, Crystal, Vacuum adiabatic calorimetry | 68.59 J/K/mol
70 K, Crystal, Vacuum adiabatic calorimetry | 70.93 J/K/mol
70.04 K, Crystal, Vacuum adiabatic calorimetry | 71 J/K/mol
71.83 K, Crystal, Vacuum adiabatic calorimetry | 72.22 J/K/mol
76.82 K, Crystal, Vacuum adiabatic calorimetry | 75.66 J/K/mol
77.08 K, Crystal, Vacuum adiabatic calorimetry | 75.91 J/K/mol
80 K, Crystal, Vacuum adiabatic calorimetry | 77.87 J/K/mol
81.77 K, Crystal, Vacuum adiabatic calorimetry | 79.16 J/K/mol
84.85 K, Crystal, Vacuum adiabatic calorimetry | 81.07 J/K/mol
86.7 K, Crystal, Vacuum adiabatic calorimetry | 82.3 J/K/mol
90 K, Crystal, Vacuum adiabatic calorimetry | 84.45 J/K/mol
92.7 K, Glass, Vacuum adiabatic calorimetry | 86.97 J/K/mol
93.5 K, Crystal, Vacuum adiabatic calorimetry | 86.69 J/K/mol
100 K, Crystal, Vacuum adiabatic calorimetry | 90.82 J/K/mol
102.16 K, Glass, Vacuum adiabatic calorimetry | 93.03 J/K/mol
102.86 K, Crystal, Vacuum adiabatic calorimetry | 92.63 J/K/mol
111.98 K, Glass, Vacuum adiabatic calorimetry | 99.33 J/K/mol
112.57 K, Crystal, Vacuum adiabatic calorimetry | 98.86 J/K/mol
120 K, Crystal, Vacuum adiabatic calorimetry | 103.63 J/K/mol
122.36 K, Crystal, Vacuum adiabatic calorimetry | 105.15 J/K/mol
122.48 K, Glass, Vacuum adiabatic calorimetry | 106.16 J/K/mol
132.22 K, Crystal, Vacuum adiabatic calorimetry | 111.61 J/K/mol
133.24 K, Glass, Vacuum adiabatic calorimetry | 113.28 J/K/mol
140 K, Crystal, Vacuum adiabatic calorimetry | 116.81 J/K/mol
142.62 K, Crystal, Vacuum adiabatic calorimetry | 118.58 J/K/mol
144.86 K, Glass, Vacuum adiabatic calorimetry | 121.24 J/K/mol
153.97 K, Crystal, Vacuum adiabatic calorimetry | 126.35 J/K/mol
158.22 K, Glass, Vacuum adiabatic calorimetry | 130.67 J/K/mol
160 K, Crystal, Vacuum adiabatic calorimetry | 130.74 J/K/mol
165.78 K, Crystal, Vacuum adiabatic calorimetry | 135.02 J/K/mol
172.31 K, Glass, Vacuum adiabatic calorimetry | 140.99 J/K/mol
177.53 K, Crystal, Vacuum adiabatic calorimetry | 143.52 J/K/mol
180 K, Crystal, Vacuum adiabatic calorimetry | 145.34 J/K/mol
183.8 K, Crystal, Vacuum adiabatic calorimetry | 148.26 J/K/mol
184.4 K, Glass, Vacuum adiabatic calorimetry | 150.13 J/K/mol
189.34 K, Crystal, Vacuum adiabatic calorimetry | 152.49 J/K/mol
193.62 K, Glass, Vacuum adiabatic calorimetry | 157.14 J/K/mol
195.08 K, Crystal, Vacuum adiabatic calorimetry | 157.04 J/K/mol
198.88 K, Glass, Vacuum adiabatic calorimetry | 161.79 J/K/mol
200 K, Crystal, Vacuum adiabatic calorimetry | 160.73 J/K/mol
201.24 K, Crystal, Vacuum adiabatic calorimetry | 161.76 J/K/mol
201.34 K, Glass, Vacuum adiabatic calorimetry | 162.43 J/K/mol
206.16 K, Crystal, Vacuum adiabatic calorimetry | 165.72 J/K/mol
212.82 K, Glass, Vacuum adiabatic calorimetry | 180.93 J/K/mol
217.01 K, Crystal, Vacuum adiabatic calorimetry | 174.74 J/K/mol
220 K, Crystal, Vacuum adiabatic calorimetry | 177.08 J/K/mol
224.64 K, Liquid, Vacuum adiabatic calorimetry | 274.63 J/K/mol
227.57 K, Crystal, Vacuum adiabatic calorimetry | 183.38 J/K/mol
230.27 K, Liquid, Vacuum adiabatic calorimetry | 276.92 J/K/mol
233.28 K, Liquid, Vacuum adiabatic calorimetry | 278.09 J/K/mol
238.35 K, Crystal, Vacuum adiabatic calorimetry | 192.45 J/K/mol
239.4 K, Liquid, Vacuum adiabatic calorimetry | 280.79 J/K/mol
240 K, Crystal, Vacuum adiabatic calorimetry | 193.69 J/K/mol
242.59 K, Liquid, Vacuum adiabatic calorimetry | 282.18 J/K/mol
249.84 K, Crystal, Vacuum adiabatic calorimetry | 202.22 J/K/mol
252.38 K, Liquid, Vacuum adiabatic calorimetry | 286.68 J/K/mol
252.84 K, Liquid, Vacuum adiabatic calorimetry | 287 J/K/mol
260 K, Crystal, Vacuum adiabatic calorimetry | 210.67 J/K/mol
261.66 K, Crystal, Vacuum adiabatic calorimetry | 212.63 J/K/mol
273.41 K, Crystal, Vacuum adiabatic calorimetry | 223.08 J/K/mol
280 K, Crystal, Vacuum adiabatic calorimetry | 228.03 J/K/mol
284.54 K, Liquid, Vacuum adiabatic calorimetry | 303.16 J/K/mol
285.16 K, Crystal, Vacuum adiabatic calorimetry | 237.05 J/K/mol
293.3 K, Liquid, Vacuum adiabatic calorimetry | 308.04 J/K/mol
297.47 K, Crystal, Vacuum adiabatic calorimetry | 243.76 J/K/mol
297.47 K, Liquid, Vacuum adiabatic calorimetry | 310.36 J/K/mol
298.15 K, Liquid, Vacuum adiabatic calorimetry | 310.74 J/K/mol
300 K, Liquid, Vacuum adiabatic calorimetry | 311.8 J/K/mol
304.21 K, Liquid, Vacuum adiabatic calorimetry | 314.19 J/K/mol
305.11 K, Liquid, Vacuum adiabatic calorimetry | 314.67 J/K/mol
305.83 K, Liquid, Vacuum adiabatic calorimetry | 315.13 J/K/mol
306.22 K, Liquid, Vacuum adiabatic calorimetry | 315.36 J/K/mol
314.2 K, Liquid, Vacuum adiabatic calorimetry | 320 J/K/mol
320 K, Liquid, Vacuum adiabatic calorimetry | 323.37 J/K/mol
321.38 K, Liquid, Vacuum adiabatic calorimetry | 324.18 J/K/mol
337.19 K, Liquid, Vacuum adiabatic calorimetry | 333.49 J/K/mol
340 K, Liquid, Vacuum adiabatic calorimetry | 335.17 J/K/mol
352.74 K, Liquid, Vacuum adiabatic calorimetry | 342.77 J/K/mol
360 K, Liquid, Vacuum adiabatic calorimetry | 347.09 J/K/mol
368.54 K, Liquid, Vacuum adiabatic calorimetry | 352.16 J/K/mol
380 K, Liquid, Vacuum adiabatic calorimetry | 359 J/K/mol
384.76 K, Liquid, Vacuum adiabatic calorimetry | 361.84 J/K/mol
400 K, Liquid, Vacuum adiabatic calorimetry | 370.85 J/K/mol
400.59 K, Liquid, Vacuum adiabatic calorimetry | 371.18 J/K/mol
410 K, Liquid, Small sample (50 mg) DSC | 374.57 J/K/mol and 371.91 J/K/mol and 371.07 J/K/mol
415.69 K, Liquid, Vacuum adiabatic calorimetry | 380.05 J/K/mol
420 K, Liquid, Vacuum adiabatic calorimetry | 382.51 J/K/mol
428.68 K, Liquid, Vacuum adiabatic calorimetry | 387.41 J/K/mol
430 K, Liquid, Small sample (50 mg) DSC | 384.13 J/K/mol and 385.46 J/K/mol and 382.55 J/K/mol
439.15 K, Liquid, Vacuum adiabatic calorimetry | 393.4 J/K/mol
440 K, Liquid, Vacuum adiabatic calorimetry | 393.64 J/K/mol
450 K, Liquid, Small sample (50 mg) DSC | 395.1 J/K/mol and 393.86 J/K/mol and 402.09 J/K/mol
460 K, Liquid, Vacuum adiabatic calorimetry | 401.95 J/K/mol
470 K, Liquid, Small sample (50 mg) DSC | 403.25 J/K/mol and 404.83 J/K/mol and 407.16 J/K/mol
480 K, Liquid, Vacuum adiabatic calorimetry | 412.21 J/K/mol
490 K, Liquid, Small sample (50 mg) DSC | 411.48 J/K/mol and 416.14 J/K/mol and 419.05 J/K/mol
500 K, Liquid, Vacuum adiabatic calorimetry | 422.42 J/K/mol
510 K, Liquid, Small sample (50 mg) DSC | 426.2 J/K/mol and 428.36 J/K/mol and 429.11 J/K/mol
520 K, Liquid, Vacuum adiabatic calorimetry | 432.63 J/K/mol
530 K, Liquid, Small sample (50 mg) DSC | 435.1 J/K/mol and 439.09 J/K/mol and 438.67 J/K/mol
540 K, Liquid, Vacuum adiabatic calorimetry | 442.84 J/K/mol
550 K, Liquid, Small sample (50 mg) DSC | 444.66 J/K/mol and 449.81 J/K/mol and 447.07 J/K/mol
560 K, Liquid, Vacuum adiabatic calorimetry | 453.01 J/K/mol
570 K, Liquid, Small sample (50 mg) DSC | 452.81 J/K/mol and 460.62 J/K/mol and 460.45 J/K/mol
580 K, Liquid, Vacuum adiabatic calorimetry | 463.22 J/K/mol
590 K, Liquid, Small sample (50 mg) DSC | 466.28 J/K/mol and 469.1 J/K/mol and 471.1 J/K/mol
600 K, Liquid, Vacuum adiabatic calorimetry | 473.43 J/K/mol
610 K, Liquid, Small sample (50 mg) DSC | 480.83 J/K/mol and 476.5 J/K/mol and 479.25 J/K/mol
620 K, Liquid, Vacuum adiabatic calorimetry | 483.64 J/K/mol
640 K, Liquid, Vacuum adiabatic calorimetry | 493.83 J/K/mol
650 K, Liquid, Vacuum adiabatic calorimetry | 498.91 J/K/mol
